Test results: ChEMBL document CHEMBL1156087, “Antioxidant reactivity toward nitroxide probes anchored into human serum albumin. A new model for studying antioxidant repairing capacity of protein radicals” (Bioorg Med Chem Lett, 2009)

What was measured:
Details in all cases: isolated protein; call rule not given here
Albumin [1] = target: T1, Albumin (Homo sapiens, UniProt P02768); assay: Binding affinity to human serum albumin by tryptophan fluorescence quenching method; assay type: ADME
Albumin [2] = target: T1, Albumin; assay: Binding affinity to human serum albumin intensity at 5 uM by fluorescence based drug displacement assay in presence of dansyl amide
Albumin [3] = target: T1, Albumin; assay: Binding affinity to human serum albumin by Benesi-Hildebrand method; assay type: ADME
Albumin [4] = target: T1, Albumin; assay: Binding affinity to human serum albumin intensity at 5 uM by fluorescence based drug displacement assay in presence of dansyl sarcosine
Albumin [5] = target: T1, Albumin; assay: Binding affinity to 45 uM human serum albumin assessed as fluorescence distribution at 2.5 uM; assay type: ADME
Albumin [6] = target: T1, Albumin; assay: Binding affinity to 15 uM human serum albumin assessed as fluorescence distribution at 2.5 uM; assay type: ADME
Albumin [7] = target: T1, Albumin; assay: Binding affinity to 130 uM human serum albumin assessed as fluorescence distribution at 2.5 uM; assay type: ADME

T1 sequence (P02768 whole entry): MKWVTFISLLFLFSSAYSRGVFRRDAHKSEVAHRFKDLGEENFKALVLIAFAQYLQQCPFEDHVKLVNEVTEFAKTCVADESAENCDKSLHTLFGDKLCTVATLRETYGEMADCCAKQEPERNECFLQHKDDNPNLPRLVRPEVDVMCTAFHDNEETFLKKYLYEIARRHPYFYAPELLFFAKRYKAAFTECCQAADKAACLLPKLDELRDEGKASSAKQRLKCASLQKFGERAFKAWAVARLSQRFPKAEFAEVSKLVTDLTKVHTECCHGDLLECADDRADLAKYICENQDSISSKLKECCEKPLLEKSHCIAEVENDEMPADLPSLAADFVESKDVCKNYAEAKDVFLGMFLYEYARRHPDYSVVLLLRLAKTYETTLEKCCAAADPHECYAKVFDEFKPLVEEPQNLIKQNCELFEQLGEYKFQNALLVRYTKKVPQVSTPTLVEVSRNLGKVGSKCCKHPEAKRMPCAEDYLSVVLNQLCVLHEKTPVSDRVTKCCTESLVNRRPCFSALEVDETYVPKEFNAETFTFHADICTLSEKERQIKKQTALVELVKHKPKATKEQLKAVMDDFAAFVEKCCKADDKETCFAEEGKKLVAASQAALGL

Ka (Albumin [1])	Activity (Albumin [2])	Ka (Albumin [3])	Activity (Albumin [4])	Activity (Albumin [5])	Activity (Albumin [6])	Activity (Albumin [7])	SMILES
9 ×10⁴ /M							Cc1nc2ccccc2c(C(=O)OC2CC(C)(C)N(O)C(C)(C)C2)c1O
5 ×10⁴ /M	Active	4.8 ×10⁴ /M	Not Active	28.1%	2.9%	44.6%	CC1(C)CC(OC(=O)c2cc3cc4c5c(c3oc2=O)CCCN5CCC4)CC(C)(C)N1O
